Measurements: paper PMC6362118, “Pharmacophore-guided discovery of CDC25 inhibitors causing cell cycle arrest and tumor regression” (Scientific Reports, 2019)

Columns and labels:
CDC25A = target: T1, CDC25A (Homo sapiens, UniProt P30304); assay: Enzymatic assay (OMFP substrate) on recombinant CDC25A; type: biochemical
T1 construct: GST (pGEX vector) (N); made in house; host or cells: E. coli BL21
T1 sequence (P30304 1-524): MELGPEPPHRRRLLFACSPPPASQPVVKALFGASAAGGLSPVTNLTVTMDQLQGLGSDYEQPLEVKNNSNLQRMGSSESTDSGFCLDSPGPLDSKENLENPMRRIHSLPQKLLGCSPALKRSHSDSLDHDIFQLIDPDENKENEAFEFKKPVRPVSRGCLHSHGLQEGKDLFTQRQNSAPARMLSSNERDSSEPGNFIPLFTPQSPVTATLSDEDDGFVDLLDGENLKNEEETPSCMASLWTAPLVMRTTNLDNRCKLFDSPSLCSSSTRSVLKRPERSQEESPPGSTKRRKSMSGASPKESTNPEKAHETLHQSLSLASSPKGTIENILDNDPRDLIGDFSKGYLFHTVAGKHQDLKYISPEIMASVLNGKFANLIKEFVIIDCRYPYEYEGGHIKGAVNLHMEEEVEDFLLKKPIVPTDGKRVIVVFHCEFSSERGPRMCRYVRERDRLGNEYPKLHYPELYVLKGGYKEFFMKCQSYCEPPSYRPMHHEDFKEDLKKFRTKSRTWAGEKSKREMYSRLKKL
Experimental: 57 UPD compounds were dissolved in DMSO at 10 mM stock concentration and stored in
60 Expression and purification of CDC25 phosphatases - CDC25A (kind gift of I.
61 Hoffmann, Heidelberg, Germany), CDC25B and CDC25C (kind gift of B. Gabrielli,
62 Queensland, Australia) in pGEX were expressed in E. coli BL21 cells and purified on 1
63 ml Glutathione Sepharose 4 Fast Flow columns as described 1.
(§1) 65 Enzymatic assays - CDC25A, CDC25B and CDC25C were appropriately diluted in 10
(§2) 66 mM Tris-HCl pH 8.0, 50 mM NaCl and assayed in 20 mM Tris-HCl pH 8.0, 75 mM
(§3) 67 NaCl, 0.5 mM EGTA, 1 mM DTT, 0.1 mg/ml BSA and defined concentrations of
(§4) 68 compounds. Reactions were started by addition of the substrate OMFP (0.1 mM). Assays
(§5) 69 were carried out at room temperature in duplicate or triplicate using transparent-bottom,
(§6) 70 V-shaped 96 well plates and read at defined intervals on a Molecular Devices
(§7) 71 SpectraMax microplate reader (ex: 490 nm / em: 525 nm). IC50 and kinetic parameters
(§8) 72 calculated from Lineweaver-Burk double-reciprocal plots of the data were obtained using
73 GraphPad Prism software. […]

HeLa cells [1] = assay: Cell viability assay on HeLa cells; type: cell-based; conditions: 48h treatment
Experimental: (§9) 75 Cell culture - Wild-type HeLa and Kyoto HeLa cells stably expressing mCherry-H2B
(§10) 76 were maintained in DMEM+L-Glutamine (Gibco, Life Technologies, USA)
(§11) 77 supplemented with 5% fetal calf serum (FCS) (Gibco) and penicillin-streptomycin (100
78 U/ml - 100 µg/ml) (Gibco). […]
87 Cell viability assays - Compounds viability upon 48h treatment with the compounds was
88 assessed as described 4. Data were plotted with Prism 7® and analyzed by non-linear
89 regression. Comparison of single curve fitting to all data set within an experiment was
90 performed with the extra sum-of-squares F-test to determine P values. […]

[2] = parameters: method as in PMID 17970046; conditions: due to rapid metabolism; cited from earlier work
HeLa cells [3] = assay: Flow cytometric analysis of cell cycle progression (DNA content) in HeLa cells; type: cell-based
Experimental: Reactions were started by addition of the substrate OMFP (0.1 mM). Assays 69 were carried out at room temperature in duplicate or triplicate using transparent-bottom, 70 V-shaped 96 well plates and read at defined intervals on a Molecular Devices 71 SpectraMax microplate reader (ex: 490 nm / em: 525 nm). IC50 and kinetic parameters 72 calculated from Lineweaver-Burk double-reciprocal plots of the data were obtained using 73 GraphPad Prism software. 74 75 Cell culture - Wild-type HeLa and Kyoto HeLa cells stably expressing mCherry-H2B 76 were maintained in DMEM+L-Glutamine (Gibco, Life Technologies, USA) 77 supplemented with 5% fetal calf serum (FCS) (Gibco) and penicillin-streptomycin (100 […] A549 and Colo741 were grown and maintained like HeLa 79 cells but with 10% FCS. HCT116 were maintained in McCoy's medium supplemented 80 with 10% FCS and penicillin-streptomycin. U2OS-Tet-OFF cells expressing HA-CDC25 81 were grown and maintained in DMEM+L-Glutamine, 10% Tet-free FCS and penicillin- 82 streptomycin in the presence or the absence of 4 μg/ml tetracycline (Sigma, T7660). 83 84 Cell synchronization - Cell synchronization was performed by double thymidine block- 85 release protocol 2 or nocodazole treatment 3 and verified by flow cytometry. 86 87 Cell viability assays - Compounds viability upon 48h treatment with the compounds was 88 assessed as described 4. Data were plotted with Prism 7® and analyzed by non-linear 89 regression. Comparison of single curve fitting to all data set within an experiment was 90 performed with the extra sum-of-squares F-test to determine P values. 91 92 Western blotting - Cell lysis and immunoblot analysis were performed as previously 93 described 5. […] Cells were washed with PBS, resuspended […] To 100 quantify phosphorylation of CDK1 at Tyr15 and H2AX at S139, cells were harvested and 101 examined as described 6. Samples were measured on an AttuneTM NxT Cytometer 102 (ThermoFisher Scientific, Carlsbad, CA, USA) and data were analyzed with FlowJo® 103 software v10 (FlowJo, LLC, Ashland, OR, USA). 104 105 Real Time qRT-PCR - Organoids were lysed in Tri-Reagent (Sigma) as previously 106 described 7 and total RNA was isolated as described by manufacturer's instructions. For […] 108 High Fidelity cDNA Synthesis kit (Roche). Real-time quantitative PCR reactions were 109 performed in three independent biological replicates, each with technical triplicate, using 110 the Applied Biosystems SYBR Green Kit and monitored by the ABI Prism 7900HT 111 system (Applied Biosystem). The following primers were used: 112 Lgr5: Forward [NT] and Reverse 5'- […] 114 Lysozyme: Forward [NT] and Reverse 5'- 115 [NT]3' 116 Cryptdin: Forward [NT] and Reverse 5'- 117 [NT]-binding protein (TBP): Forward [NT] and 119 Reverse [NT] 120 […] 122 amplification curves and the melting temperature analysis of the final amplification […] 4

HeLa cells [4] = assay: Time-lapse microscopy of mitosis in synchronized HeLa cells; type: cell-based
Experimental: Cells were grown in 35 mm CellView™ cell culture dishes with glass bottom (# 627870, Greiner-BioOne) at a density of 2.5 × 10^5 cells/ml in a humidified cell incubator maintained at 37 °C and 5% CO2. Cell were viewed by phase contrast microscopy with a 10x objective using an Olympus IX 81 motorized inverted microscope (Olympus, Hamburg, Germany) equipped with external temperature control chamber and CO2 bottle to maintain cells at 37 °C with 5% CO2. Transition through mitosis was documented by acquisition of four frames per hour over a period of 14 h using a CCD camera (Orca AG, Hamamatsu) and cellR® software (Olympus). HeLa-Kyoto cells (mCherry-H2B/EGFP-α-tubulin) were visualized by fluorescence microscopy with an Olympus IX 81 microscope using a 10x objective and selecting Ex. = 492 ± 18 nm/Em. = 535 ± 50 nm for the green channel and Ex. = 572 ± 23 nm/Em. = 645 ± 75 nm for the red channel.

[5] = test system: U2OS Tet-OFF cells expressing HA-CDC25A; assay: Cell viability of U2OS Tet-OFF cells overexpressing HA-CDC25A; type: cell-based; conditions: grown in the absence of tetracycline (HA-CDC25A induced)
Experimental: as §1, §2, §3, §4, §5, §6, §7, §8
73 GraphPad Prism software.
as §9, §10, §11
78 U/ml - 100 µg/ml) (Gibco). A549 and Colo741 were grown and maintained like HeLa
79 cells but with 10% FCS. HCT116 were maintained in McCoy’s medium supplemented
80 with 10% FCS and penicillin-streptomycin. U2OS-Tet-OFF cells expressing HA-CDC25
81 were grown and maintained in DMEM+L-Glutamine, 10% Tet-free FCS and penicillin- […]
88 assessed as described 4. Data were plotted with Prism 7® and analyzed by non-linear […]

| mode of action (reversibility) (CDC25A; pre-incubation at ~3x IC50 (5 μM UPDs, 2 µM NSC663284), 10-fold dilution) | IC50 (HeLa cells [1]) [µM] | remaining activity at 20 µM (CDC25A; compound 20 µM, relative to DMSO control, read-out: % remaining activity ± SD (Table S2, second round of selection)) [%] | IC50 (HeLa cells [1]; Homo sapiens) [µM] | SMILES | antitumor activity in mice [2] | effect on cell cycle distribution (DNA content) (HeLa cells [3]; asynchronous HeLa cells, 10 μM, 15 h) | effect on the G2/M transition (HeLa cells [3]; double-thymidine synchronized HeLa, 10 μM added 5 h upon release, analysed 12 h post-release) | execution of mitosis (time-lapse) (HeLa cells [4]; HeLa, 10 μM added 5 h upon release from 2x thymidine block, monitored 14 h) | execution of mitosis at low dose (time-lapse) (HeLa cells [4]; synchronized HeLa Kyoto cells (mCherry-H2B, GFP-α-tubulin), 5 μM) | sensitivity of CDC25A overexpressing cells (viability) [5] |
| --- | --- | --- | --- | --- | --- | --- | --- | --- | --- | --- |
| irreversible | 2.57 | – | – | O=C1C(Cl)=C(NCCN2CCOCC2)C(=O)c2ncccc21 [NSC-663284, reference compound] | minimal antitumor activity | – | – | – | – | – |
| – | – | 0.1 ± 0.3 | 0.9 | Cc1c(O)ccc(C2=CC(=O)c3cccc(O)c3C2=O)c1O [UPD-787, 8-hydroxy-2-(2,4-dihydroxy-3-methylphenyl) naphthalene-1,4-dione] | – | accumulation of cells at G2/M | accretion of the G2/M peak | could not complete mitotic transition and died before reaching G1 | failed attempt to round up and execute mitosis, which was followed by membrane blebbing and death | remained sensitive |
